≈ marks a conversion by molar mass, not a printed value. Where two headings read alike, the source gives them in different places.
How the values were obtained:
E. coli (strain DH5α) = test: E. coli growth inhibition assay (MIC on agar plates); format: cell-based; conditions: for MIC: Escherichia coli, read-out: minimum inhibitory concentration (MIC)
Excerpt: E. coli growth inihibition assay. […] The minimal inhibitory concentration (MIC) was reported as the lowest concentration at which no colonies formed.

[1] = system: nucleus-targeted pfDHFR (K27E, C59R, S108N) soluble domain in NIH 3T3 fibroblast cells; conditions: 500 nM, ca. 15 minutes
eDHFR = molecular target: T1, eDHFR (Escherichia coli, UniProt P0ABQ4); test: biochemical; parameters: species or system E. coli; conditions: terbium-complexed probe 20 nM, purified eDHFR-GFP, non-linear least-squares fit; read-out: dissociation constant for binding to eDHFR
T1 construct: pRSETb-EGFP-eDHFR expressed the protein fusion […]-[EGFP]-GSGGSG-[eDHFR]; His6 leader of pRSETb ([…]) (N); made in house; host or cells: E. coli BL21 DE3 (pLysS)

[2] = molecular target: eDHFR expressed on the cell surface of NIH3T3 fibroblasts (Escherichia coli, UniProt P0ABQ4); test: Labeling of cell surface-expressed eDHFR (pDisplay-eDHFR) on NIH3T3 fibroblasts, microscopy; format: cell-based; conditions: 1 μM, 10 min, time-resolved imaging
human leukocytes = conditions: cited from earlier work
human cells = conditions: cited from earlier work
[3] = molecular target: GFP-cldn1/tailΔYV (GFP-cldn1/tail construct lacking the C-terminal YV motif) (human) (UniProt O95832); test: intermolecular TR-FRET microscopy in living MDCK cells; sensitized GFP emission at 520 nm
[4] = molecular target: T2, GFP-cldn1/tail (N-terminal fusion of EGFP to the C-terminal cytoplasmic domain, residues 187-211, of human … (human, UniProt O95832 187-211, not fully specified)); test: as above
T2 construct: Expressed in living MDCK cells; GFP is the FRET acceptor; also called C-terminal cytoplasmic tail of claudin-1; not shown: enhanced GFP (EGFP) as encoded in vector pEGFP-C1 (Clontech)
T2 chain (looked up): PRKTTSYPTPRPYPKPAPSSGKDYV

[5] = molecular target: T2, GFP-cldn1/tail (N-terminal fusion of …); test: intermolecular TR-FRET microscopy in living MDCK cells; reference pair ZO-1/PDZ1-eDHFR and GFP-cldn1/tailΔYV

COc1cc(Cc2cnc(N)nc2N)cc(C#CCCCC(=O)O)c1OCCCCC(=O)NCCOCCOCCN [Compound 3a]
ability to cross the E. coli cell membrane (inferred from growth assay) (E. coli (strain DH5α)): cannot cross the cell membrane | MIC (E. coli (strain DH5α); 24 h): > 100 µM

CCOc1cc(Cc2cnc(N)nc2N)ccc1OCc1cc(OC)c(OCCCCC(=O)NCCOCCOCCNC(=O)OC(C)(C)C)c(OC)c1 [Compound 2a]
MIC (E. coli (strain DH5α); 37° C., 24 hours, lowest concentration at which no colonies formed): ~20 µM (≈ 15.1 µg/mL) | cell permeability (diffuse fluorescence) [1]: passively diffused into mammalian cells

COc1cc(Cc2cnc(N)nc2N)cc(OC)c1OCCCCC(=O)NCCOCCOCCNC(=O)CN(CCN(CCN(CC(=O)O)CC(=O)Nc1ccc2c(C)cc(=O)[nH]c2c1)CC(=O)O)CC(=O)O [TMP-cDTPA]
Kd (eDHFR): 9 ± 1.3 nM | cell-surface labelling of eDHFR, time-resolved mode [2]: not

CN(Cc1cnc2nc(N)nc(N)c2n1)c1ccc(C(=O)N[C@@H](CCC(=O)O)C(=O)O)cc1 [MTX, Methotrexate]
concentration at which toxicity observed (human leukocytes): 2 µM | extracellular concentration at which DNA damage has been observed (human cells): 10 µM

B1: ZO-1/PDZ1-eDHFR (C-terminal fusion of eDHFR to the PDZ1 domain, residues 19-113, of human ZO-1) (other, human;Escherichia coli)
chain: MWEQHTVTLHRAPGFGFGIAISGGRDNPHFQSGETSIVISDVLKGGPAEGQLQENDRVAMVNGVSMDNVEHAFAVQQLRKSGKNAKITIRRKKKVQMISLIAALAVDRVIGMENAMPWNLPADLAWFKRNTLNKPVIMGRHTWESIGRPLPGRKNIILSSQPGTDDRVTWVKSVDEAIAACGDVPEIMVIGGGRVYEQFLPKAQKLYLTHIDAEVEGDTHFPDYEPDDWESVFSEFHDADAQNSHSYCFEILERR
notes: Built by inserting ZO-1 19-113 into pLL-1NLS in frame with eDHFR; also called PDZ1 domain of ZO-1
signal-to-noise ratio for intermolecular TR-FRET [3]: 1.5 | signal-to-noise ratio for intermolecular TR-FRET [4]: 6.3 | fold difference in TR-FRET signal against GFP-cldn1/tailΔYV [5]: > 4 fold
